From ChEMBL document CHEMBL5385928, “Sokotrasterol Sulfate Suppresses IFN-γ-Induced PD-L1 Expression by Inhibiting JAK Activity” (J Nat Prod, 2024) come the findings set out here.

Data set [1] is described as follows: Inhibition of IFN-gamma induced PD-L1 protein expression in human BXPC-3 cells incubated for 48 hrs by high-throughput flow cytometric analysis. The note with it: BXPC-3, 48 h. For orientation: A flow cytometer gives signals particle by particle.
A short description of data set [2]: Inhibition of IFN-gamma induced PD-L1 protein expression in human A549 cells incubated for 48 hrs by high-throughput flow cytometric analysis. The note with it: A549, 48 h.
The nature of data set [3]: Inhibition of IFN-gamma induced PD-L1 protein expression in human SK-OV-3 cells incubated for 48 hrs by high-throughput flow cytometric analysis. The note with it: SK-OV-3, 48 h.
Data set [4] relates to BXPC-3. Nature of the data set: Reversal of IFN-gamma induced cell death in human BXPC-3 cells at 2.5 to 10 uM incubated for 48 hrs by microscopic analysis. It counts as functional, cell-based. The note with it: dose 2.5-10 µM.
Data set [5] relates to BXPC-3. The data set is described as follows: Effect on cell death in human BXPC-3 cells at 2.5 to 10 uM incubated for 48 hrs by microscopic analysis. As to conditions: bxpc-3, 48 h, dose 2.5-10 µM. It counts as toxicity, cell-based.
Data set [6] relates to BXPC-3. Nature of the data set: Effect on cell viability in human BXPC-3 cells at 2.5 to 10 uM incubated for 48 hrs by CellTiter-Glo assay. The note with it: bxpc-3, 48 h, dose 2.5-10 µM. It counts as toxicity, cell-based.
The target in data set [7] is Transcription factor p65 (Homo sapiens) (UniProt Q04206). Nature of the data set: Inhibition of p65 phosphorylation in human BXPC-3 cells at 2.5 to 10 uM preincubated with compound for 1 hrs followed by IFN-gamma stimulation for 1 hrs by Western blot analysis. It counts as cell-based. As to conditions: dose 2.5-10 µM, time 2.0 hrs.
Sequence of Transcription factor p65 (Homo sapiens) (Q04206 whole entry): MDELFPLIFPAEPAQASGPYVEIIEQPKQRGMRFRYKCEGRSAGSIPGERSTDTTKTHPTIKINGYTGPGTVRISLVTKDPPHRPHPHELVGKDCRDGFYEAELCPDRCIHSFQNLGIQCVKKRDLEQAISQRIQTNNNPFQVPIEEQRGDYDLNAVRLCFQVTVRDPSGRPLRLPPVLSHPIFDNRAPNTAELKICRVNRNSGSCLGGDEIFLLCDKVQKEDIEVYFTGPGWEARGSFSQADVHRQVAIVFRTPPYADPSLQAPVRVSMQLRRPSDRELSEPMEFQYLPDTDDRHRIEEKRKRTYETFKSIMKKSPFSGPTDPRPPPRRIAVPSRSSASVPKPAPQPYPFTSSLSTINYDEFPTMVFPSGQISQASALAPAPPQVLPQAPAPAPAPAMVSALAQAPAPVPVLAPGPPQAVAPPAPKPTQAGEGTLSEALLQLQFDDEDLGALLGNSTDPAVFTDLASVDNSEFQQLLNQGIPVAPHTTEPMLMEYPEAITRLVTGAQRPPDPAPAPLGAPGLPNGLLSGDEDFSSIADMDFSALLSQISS
Data set [8] has the same target. Nature of the data set: Inhibition of p65 phosphorylation in human A549 cells at 2.5 to 10 uM preincubated with compound for 1 hrs followed by IFN-gamma stimulation for 1 hrs by Western blot analysis. It counts as cell-based. The note with it: dose 2.5-10 µM, time 2.0 hrs. On the technique in general: A western blot detects proteins with antibodies after separation by electrophoresis.

Data set [9] shares this target. The data set is described as follows: Inhibition of p65 phosphorylation in human SK-OV-3 cells at 2.5 to 10 uM preincubated with compound for 1 hrs followed by IFN-gamma stimulation for 1 hrs by Western blot analysis. It counts as cell-based. The note with it: dose 2.5-10 µM, time 2.0 hrs.
The target in data set [10] is T1, Tyrosine-protein kinase JAK2 (Homo sapiens, UniProt O60674). The data set is described as follows: Inhibition of N-terminal His-tagged human JAK2 (826 to 1132 residues) expressed in Sf21 cells incubated for 30 mins in presence of ATP by LANCE Ultra assay. On the technique in general: Time-resolved FRET reads energy transfer from a long-lived donor to a nearby acceptor.
T1 sequence (O60674 whole entry, the tested form may be a part): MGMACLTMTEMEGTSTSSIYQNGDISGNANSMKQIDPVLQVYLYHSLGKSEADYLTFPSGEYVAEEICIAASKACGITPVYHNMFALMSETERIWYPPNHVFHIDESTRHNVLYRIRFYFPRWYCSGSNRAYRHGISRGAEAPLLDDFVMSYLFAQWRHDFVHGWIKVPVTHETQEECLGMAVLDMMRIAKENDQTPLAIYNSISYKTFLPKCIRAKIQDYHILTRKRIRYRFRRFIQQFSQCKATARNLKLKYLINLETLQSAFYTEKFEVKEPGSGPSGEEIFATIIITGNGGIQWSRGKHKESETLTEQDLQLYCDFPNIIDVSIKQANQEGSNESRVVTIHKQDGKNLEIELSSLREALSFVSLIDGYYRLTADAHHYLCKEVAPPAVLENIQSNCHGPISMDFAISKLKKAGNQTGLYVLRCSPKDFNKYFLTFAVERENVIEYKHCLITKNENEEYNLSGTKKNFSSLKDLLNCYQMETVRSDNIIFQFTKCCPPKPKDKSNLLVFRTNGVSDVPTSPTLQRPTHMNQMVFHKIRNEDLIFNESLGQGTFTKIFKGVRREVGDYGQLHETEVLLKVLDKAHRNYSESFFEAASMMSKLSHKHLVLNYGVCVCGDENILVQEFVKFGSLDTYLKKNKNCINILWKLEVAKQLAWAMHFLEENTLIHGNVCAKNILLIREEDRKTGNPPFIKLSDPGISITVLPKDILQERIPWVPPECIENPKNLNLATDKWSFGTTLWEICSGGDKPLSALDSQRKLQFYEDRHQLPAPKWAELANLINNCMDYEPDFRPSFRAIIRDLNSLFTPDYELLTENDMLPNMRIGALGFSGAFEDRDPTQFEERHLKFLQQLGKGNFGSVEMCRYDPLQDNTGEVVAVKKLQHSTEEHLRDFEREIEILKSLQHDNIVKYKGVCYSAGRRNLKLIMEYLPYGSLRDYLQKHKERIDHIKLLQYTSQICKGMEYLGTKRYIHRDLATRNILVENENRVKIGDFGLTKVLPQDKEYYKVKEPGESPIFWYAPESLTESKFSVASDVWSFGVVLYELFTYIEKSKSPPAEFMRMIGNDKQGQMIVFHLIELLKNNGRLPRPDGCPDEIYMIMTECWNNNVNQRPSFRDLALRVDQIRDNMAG

The target in data set [11] is T2, Tyrosine-protein kinase JAK3 (Homo sapiens, UniProt P52333).
T2 sequence (P52333 whole entry): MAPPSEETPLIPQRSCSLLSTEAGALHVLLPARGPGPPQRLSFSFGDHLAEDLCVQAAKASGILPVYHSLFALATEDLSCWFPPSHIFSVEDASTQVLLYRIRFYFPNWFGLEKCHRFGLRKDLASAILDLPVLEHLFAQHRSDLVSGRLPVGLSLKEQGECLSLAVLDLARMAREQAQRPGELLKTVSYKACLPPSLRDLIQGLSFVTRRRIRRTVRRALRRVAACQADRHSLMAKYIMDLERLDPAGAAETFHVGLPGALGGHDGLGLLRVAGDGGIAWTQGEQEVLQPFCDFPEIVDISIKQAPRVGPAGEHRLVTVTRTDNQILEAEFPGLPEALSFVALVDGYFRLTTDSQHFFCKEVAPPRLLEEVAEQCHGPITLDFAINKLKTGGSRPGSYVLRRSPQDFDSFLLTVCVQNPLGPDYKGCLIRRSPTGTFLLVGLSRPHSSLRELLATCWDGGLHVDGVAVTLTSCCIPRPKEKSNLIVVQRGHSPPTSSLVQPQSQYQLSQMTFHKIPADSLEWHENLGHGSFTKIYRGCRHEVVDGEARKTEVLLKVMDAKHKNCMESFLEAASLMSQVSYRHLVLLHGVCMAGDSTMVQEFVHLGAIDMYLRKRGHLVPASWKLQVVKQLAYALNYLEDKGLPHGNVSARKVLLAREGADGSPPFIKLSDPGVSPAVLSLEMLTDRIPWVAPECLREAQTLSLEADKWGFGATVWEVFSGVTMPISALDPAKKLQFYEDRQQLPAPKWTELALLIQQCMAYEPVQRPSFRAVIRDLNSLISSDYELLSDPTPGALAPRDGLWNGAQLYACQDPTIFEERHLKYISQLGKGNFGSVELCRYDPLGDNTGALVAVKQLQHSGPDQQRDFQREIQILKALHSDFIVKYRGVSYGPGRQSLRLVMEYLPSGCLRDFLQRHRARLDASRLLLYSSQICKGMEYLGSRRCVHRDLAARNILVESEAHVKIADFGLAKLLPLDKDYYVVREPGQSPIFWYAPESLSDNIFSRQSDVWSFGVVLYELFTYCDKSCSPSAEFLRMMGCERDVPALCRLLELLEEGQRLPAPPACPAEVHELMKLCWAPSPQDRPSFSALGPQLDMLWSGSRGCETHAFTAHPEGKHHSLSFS
Nature of the data set: Inhibition of N-terminal His-tagged human JAK3 (795 to 1124 residues) expressed in Sf21 cells incubated for 30 mins in presence of ATP by LANCE Ultra assay.

Data set [12] concerns the target Non-receptor tyrosine-protein kinase TYK2 (Homo sapiens, UniProt P29597). The data set is described as follows: Inhibition of N-terminal GST-tagged human TYK2 (871to 1187 residues) expressed in Sf21 cells incubated for 30 mins in presence of ATP by LANCE Ultra assay.
Data set [13] relates to B16-OVA melanoma cell. The data set is described as follows: Sensitization of mouse B16-OVA melanoma cells to OT-1 T cells assessed as increase in antigen specific T-cell killing at 2.5 to 10 uM preincubated with compound in presence of mouse IFN-gamma for 24 hrs followed by OT-1 T cell addition for 24 hrs by crystal violet staining based analysis. The note with it: dose 2.5-10 µM, time 48.0 hrs. It counts as functional.

Data set [14] has as its system B16-OVA melanoma cell. The data set is described as follows: Sensitization of mouse B16-OVA melanoma cells to OT-1 T cells assessed as reduction in cell viability preincubated with compound in presence of mouse IFN-gamma for 24 hrs followed by OT-1 T cell addition for 24 hrs by CellTiter-Glo assay. It counts as functional, cell-based. The note with it: dose 2.5-10 µM.

Data set [15] deals with T1, Tyrosine-protein kinase JAK2. As to conditions: BXPC-3, Lysate, dose 10.0 µM, time 1.0 hrs.

Molecules are shown by their SMILES. The source made the active and inactive calls. The calls are words filed in the database; no cut-off is given here.

Sequence of Non-receptor tyrosine-protein kinase TYK2 (P29597 whole entry, the tested form may be a part): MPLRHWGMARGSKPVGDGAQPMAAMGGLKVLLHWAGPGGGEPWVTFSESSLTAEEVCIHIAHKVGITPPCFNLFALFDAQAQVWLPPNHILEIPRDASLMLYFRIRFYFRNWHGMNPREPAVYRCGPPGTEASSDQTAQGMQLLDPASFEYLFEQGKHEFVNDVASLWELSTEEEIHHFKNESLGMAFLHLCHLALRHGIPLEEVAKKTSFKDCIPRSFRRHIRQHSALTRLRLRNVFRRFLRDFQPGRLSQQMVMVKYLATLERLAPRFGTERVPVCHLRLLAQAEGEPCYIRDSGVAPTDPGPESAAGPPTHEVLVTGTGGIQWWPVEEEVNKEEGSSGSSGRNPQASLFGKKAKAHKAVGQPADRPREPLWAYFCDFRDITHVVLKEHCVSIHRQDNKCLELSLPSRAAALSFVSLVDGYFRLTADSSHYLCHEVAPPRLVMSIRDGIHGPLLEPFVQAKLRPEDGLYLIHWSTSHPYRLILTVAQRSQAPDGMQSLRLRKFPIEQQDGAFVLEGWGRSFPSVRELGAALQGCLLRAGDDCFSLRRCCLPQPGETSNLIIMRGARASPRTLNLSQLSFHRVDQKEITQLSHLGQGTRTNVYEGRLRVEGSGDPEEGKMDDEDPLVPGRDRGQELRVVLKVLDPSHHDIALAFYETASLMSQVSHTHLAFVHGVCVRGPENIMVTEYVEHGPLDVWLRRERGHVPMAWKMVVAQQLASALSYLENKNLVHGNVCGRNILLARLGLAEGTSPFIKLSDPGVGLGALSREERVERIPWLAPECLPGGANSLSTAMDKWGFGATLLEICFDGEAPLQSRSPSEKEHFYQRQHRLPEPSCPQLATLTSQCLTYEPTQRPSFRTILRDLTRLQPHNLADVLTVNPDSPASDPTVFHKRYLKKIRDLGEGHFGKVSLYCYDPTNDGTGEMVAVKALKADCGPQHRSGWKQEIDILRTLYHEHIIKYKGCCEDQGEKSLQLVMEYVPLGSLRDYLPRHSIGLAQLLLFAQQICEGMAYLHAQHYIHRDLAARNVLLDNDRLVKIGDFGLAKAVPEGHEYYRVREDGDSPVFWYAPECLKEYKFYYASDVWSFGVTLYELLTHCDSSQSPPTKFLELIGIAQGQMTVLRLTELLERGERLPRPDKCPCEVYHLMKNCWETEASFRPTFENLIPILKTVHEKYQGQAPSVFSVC

In the case of `C/C(=C\C[C@@H](C)[C@H]1CC[C@H]2[C@@H]3C[C@H](OS(=O)(=O)[O-])[C@H]4C[C@H](OS(=O)(=O)[O-])[C@@H](OS(=O)(=O)[O-])C[C@]4(C)[C@H]3CC[C@]12C)C(C)(C)C(C)C.[Na+].[Na+].[Na+]`, the IC50 (in general, the point on the concentration scale where inhibition reaches its midpoint) turned out to be 4.1 µM in data set [1]; 2.8 µM in [2]; 6.5 µM in [3]; 1.2 µM in data set [10]; 0.52 µM in [11]; 0.53 µM in data set [12]. Also, the result in the data set with BXPC-3 [4] and in the data set with B16-OVA melanoma cell [13] was Active. The Activity result in the data set with BXPC-3 [5] is “Non-Toxic”; in the data set with BXPC-3 [6], “Non-Toxic”; with B16-OVA melanoma cell [14] it was “Dose-Dependent Effect”. The inhibition result in [7], in [8] and in data set [9] was “inactive” in each case. Also, the ΔTm (usually the change in melting temperature against a reference sample) in [15] worked out at 11 °C.
